Source: patent US10316017B2, “COT modulators and methods of use thereof” (Gilead Sciences, Inc., priority 2015, dated 2019)
Read-outs that look alike come from different tables or passages of the source.

Legend:
[1] = tested on: TNFα production in LPS-stimulated human monocytes; assay: Cot Monocyte TNFα Cell Based Assay; settings: TNFα in LPS-stimulated human monocytes, read-out: EC50 TNF
Summary of the method: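 Cells at 5,000/well were pretreated with compound for 1 h at 37 °C (0.5% DMSO final), then stimulated with 50 pg/ml LPS for 4 h at 37 °C. Supernatant TNFα was measured by two-antibody TR-FRET after overnight room-temperature incubation; values are percent of control between unstimulated and stimulated wells.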

[2] = target: T1, human Cot catalytic domain (30-397 amino acids) (Homo sapiens, UniProt P41279); assay: High Throughput Cot Biochemical Assay (KinEASE TR-FRET); settings: Cot KinEASE TR-FRET (HTRF) biochemical assay, 400 μM ATP; read-out: IC50 HTRF
T1 construct: Purified recombinant human Cot catalytic domain (30-397 amino acids) was purchased from Cama Biosciences; purchased Cama Biosciences (so in the source)
T1 sequence (P41279 30-397): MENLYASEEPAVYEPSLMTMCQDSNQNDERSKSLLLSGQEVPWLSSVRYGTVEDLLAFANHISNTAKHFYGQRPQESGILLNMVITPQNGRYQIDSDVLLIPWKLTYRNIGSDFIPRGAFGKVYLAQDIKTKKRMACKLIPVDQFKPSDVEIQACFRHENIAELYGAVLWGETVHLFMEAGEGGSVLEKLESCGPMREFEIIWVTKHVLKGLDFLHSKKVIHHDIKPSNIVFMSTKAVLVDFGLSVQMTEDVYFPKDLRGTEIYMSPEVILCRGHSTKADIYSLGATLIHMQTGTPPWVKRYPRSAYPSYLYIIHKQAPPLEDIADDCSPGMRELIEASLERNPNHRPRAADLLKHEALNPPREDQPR
Summary of the method: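 Reaction of 5 nM recombinant human Cot catalytic domain (aa 30-397) with 1 μM STK3 peptide (XL665-labeled) and 400 μM ATP in 10 mM MOPS pH 7.0, 10 mM MgOAc, 1 mM DTT, 0.5 mg/mL BSA, 0.1% DMSO. Phosphopeptide detected by TR-FRET with europium anti-phospho antibody.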

Compound | EC50 ([1]; Homo sapiens, Monocyte) [nM] | IC50 [2] [nM] | EC50 [1] [nM]
CC(C)(C)CNc1c(C#N)cnc2c(C#N)cc(N[C@@H](c3cccc(NS(C)(=O)=O)c3)c3cn(C4CC4)nn3)cc12 [Example 68, (S)-N-(3-((1-cyclopropyl-1H-1,2,3-triazol-4-yl)((3,8-dicyano-4-(neopentylamino)quinolin-6-yl)amino)methyl)phenyl)methanesulfonamide] | > 1000 | 3 | –
CN(c1cccc([C@H](Nc2cc(C#N)c3ncc(C#N)c(NCC(C)(C)C)c3c2)c2cn(C3CC3)nn2)c1)S(C)(=O)=O [Example 69, (S)-N-(3-((1-cyclopropyl-1H-1,2,3-triazol-4-yl)((3,8-dicyano-4-(neopentylamino)quinolin-6-yl)amino)methyl)phenyl)-N-methylmethanesulfonamide] | 124 | 3 | –
CC(C)(C)CNc1c(C#N)cnc2c(Cl)cc(N[C@H](c3cn(C4(C(N)=O)CC4)nn3)c3ccccc3Cl)cc12 [Example 70, (S)-1-(4-(((8-chloro-3-cyano-4-(neopentylamino)quinolin-6-yl)amino) (2-chlorophenyl)methyl)-1H-1,2,3-triazol-1-yl) cyclopropane-1-carboxamide] | 124 | 9 | –
N#CCC[C@@H](Nc1c(C#N)cnc2c(Cl)cc(N[C@H](c3cn(CC(N)=O)nn3)c3ccccc3Cl)cc12)c1ccccc1 [Example 71, 2-(4-((S)-((8-chloro-3-cyano-4-(((R)-3-cyano-1-phenylpropyl)amino)quinolin-6-yl)amino) (2-chlorophenyl)methyl)-1H-1,2,3-triazol-1-yl) acetamide] | 657 | 4 | –
CC1(n2cc([C@@H](Nc3cc(Cl)c4ncc(C#N)c(N[C@H](CCC#N)c5ccccc5)c4c3)c3ccccc3Cl)nn2)CC1 [Example 72, 8-chloro-6-(((S)-(2-chlorophenyl)(1-(1-methylcyclopropyl)-1H-1,2,3-triazol-4-yl)methyl)amino)-4-(((R)-3-cyano-1-phenylpropyl)amino)quinoline-3-carbonitrile] | 66 | 2 | –
N#CCC[C@@H](Nc1c(C#N)cnc2c(Cl)cc(N[C@H](c3cn(C4(C#N)CC4)nn3)c3ccccc3Cl)cc12)c1ccccc1 [Example 73, 8-chloro-6-(((S)-(2-chlorophenyl)(1-(1-cyanocyclopropyl)-1H-1,2,3-triazol-4-yl)methyl)amino)-4-(((R)-3-cyano-1-phenylpropyl)amino) quinoline-3-carbonitrile] | 34 | 2 | –
[2H][C@](Nc1cc(Cl)c2ncc(C#N)c(N[C@H](CCC#N)c3ccccc3)c2c1)(c1ccc(Cl)cc1)c1cn(C2CC2)nn1 [Example 74, 8-chloro-6-(((S)-(4-chlorophenyl)(1-cyclopropyl-1H-1,2,3-triazol-4-yl)methyl-d)amino)-4-(((R)-3-cyano-1-phenylpropyl)amino) quinoline-3-carbonitrile] | 30 | 3 | –
[2H][C@](Nc1cc(-c2ccnnc2)c2ncc(C#N)c(NCC(C)(C)C)c2c1)(c1ccc(F)cc1)c1cn(C2CC2)nn1 [Example 75, (S)-6-(((1-cyclopropyl-1H-1,2,3-triazol-4-yl)(4-fluorophenyl)methyl-d)amino)-4-(neopentylamino)-8-(pyridazin-4-yl)quinoline-3-carbonitrile] | > 1000 | 199 | –
CC(=O)Nc1cccc([C@H](Nc2cc(C#N)c3ncc(C#N)c(NCC(C)(C)C)c3c2)c2cn(C3CC3)nn2)c1 [Example 76, (S)-N-(3-((1-cyclopropyl-1H-1,2,3-triazol-4-yl)((3,8-dicyano-4-(neopentylamino)quinolin-6-yl)amino)methyl)phenyl)acetamide] | 462 | 2 | –
CC(C)(C)CNc1c(C#N)cnc2c(C#N)cc(N[C@@H](c3ccc(Cl)cc3)c3cn(C4CC4)nn3)cc12 [Example 77, (S)-6-(((4-chlorophenyl) (1-cyclopropyl-1H-1,2,3-triazol-4-yl)methyl)amino)-4-(neopentylamino) quinoline-3,8-dicarbonitrile] | 108 | 9 | –

Continued, values first:

EC50 ([1]; Homo sapiens, Monocyte) [nM] | IC50 [2] [nM] | EC50 [1] [nM] | Compound
436 | 5 | – | CC(=O)N(C)c1cccc([C@H](Nc2cc(Br)c3ncc(C#N)c(NCC(C)(C)C)c3c2)c2cn(C3CC3)nn2)c1 [Example 78, (S)-N-(3-(((8-bromo-3-cyano-4-(neopentylamino)quinolin-6-yl)amino) (1-cyclopropyl-1H-1,2,3-triazol-4-yl)methyl)phenyl)-N-methylacetamide]
278 | 8 | – | CC(=O)Nc1cccc([C@H](Nc2cc(Br)c3ncc(C#N)c(NCC(C)(C)C)c3c2)c2cn(C3CC3)nn2)c1 [Example 79, (S)-N-(3-(((8-bromo-3-cyano-4-(neopentylamino)quinolin-6-yl)amino) (1-cyclopropyl-1H-1,2,3-triazol-4-yl)methyl)phenyl)acetamide]
395 | 31 | – | [2H][C@](Nc1cc(Br)c2ncc(C#N)c(NCC(C)(C)C)c2c1)(c1ccc(Cl)cc1)c1cn(C2CC2)nn1 [Example 80, (S)-8-bromo-6-(((4-chlorophenyl)(1-cyclopropyl-1H-1,2,3-triazol-4-yl)methyl-d)amino)-4-(neopentylamino) quinoline-3-carbonitrile]
316 | 20 | – | [2H][C@](Nc1cc(-c2cncnc2)c2ncc(C#N)c(N[C@H](CC)c3ccccc3)c2c1)(c1ccc(F)cc1)c1cn(C2CC2)nn1 [Example 81, 6-(((S)-(1-cyclopropyl-1H-1,2,3-triazol-4-yl)(4-fluorophenyl)methyl-d)amino)-4-(((R)-1-phenylpropyl)amino)-8-(pyrimidin-5-yl)quinoline-3-carboitrile]
183 | 1 | – | CC(C)(C)CNc1c(C#N)cnc2c(C#N)cc(N[C@@H](c3cccc(-c4ncco4)c3)c3cn(C4CC4)nn3)cc12 [Example 82, (S)-6-(((1-cyclopropyl-1H-1,2,3-triazol-4-yl)(3-(oxazol-2-yl)phenyl)methyl)amino)-4-(neopentylamino) quinoline-3,8-dicarbonitrile]
165 | 2 | – | CC(C)(C)CNc1c(C#N)cnc2c(Br)cc(N[C@@H](c3cccc(-c4ncco4)c3)c3cn(C4CC4)nn3)cc12 [Example 83, (S)-8-bromo-6-(((1-cyclopropyl-1H-1,2,3-triazol-4-yl) (3-(oxazol-2-yl)phenyl)methyl)amino)-4-(neopentylamino) quinoline-3-carbonitrile]
47 | 2 | – | [2H][C@](Nc1cc(C#N)c2ncc(C#N)c(NCC(C)(C)C)c2c1)(c1ccccc1)c1cn(C2CC2)nn1 [Example 84, (S)-6-(((1-cyclopropyl-1H-1,2,3-triazol-4-yl) (phenyl)methyl-d)amino)-4-(neopentylamino) quinoline-3,8-dicarbonitrile]
862 | 42 | – | [2H][C@@](Nc1cc(C(C)=O)c2ncc(C#N)c(Nc3cccc(Cl)c3)c2c1)(c1cn(C2CC2)nn1)c1ccccc1Cl [Example 85, (S)-8-acetyl-6-(((2-chlorophenyl)(1-cyclopropyl-1H-1,2,3-triazol-4-yl)methyl-d)amino)-4-((3-chlorophenyl)amino)quinoline-3-carbonitrile]
244 | 22 | – | [2H][C@@](Nc1cc(Cl)c2ncc(C#N)c(NCC(C)(C)C)c2c1)(c1cn(C23CC(C2)C3)nn1)c1ccccc1Cl [Example 86, (S)-6-(((1-(bicyclo[1.1.1]pentan-1-yl)-1H-1,2,3-triazol-4-yl)(2-chlorophenyl)methyl-d)amino)-8-chloro-4-(neopentylamino) quinoline-3-carbonitrile]
> 1000 | > 10000 | – | [2H]C(Nc1cc(Cl)c2ncc(C#N)c(NC(CCC#N)c3ccccc3)c2c1)(c1cn(C2CC2)nn1)c1ccccc1Cl (stereo not drawn) [Example 87, 8-chloro-6-(((2-chlorophenyl) (1-cyclopropyl-1H-1,2,3-triazol-4-yl)methyl-d)amino)-4-((3-cyano-1-phenylpropyl)amino) quinoline-3-carbonitrile]
– | 190 | > 1000 | [2H]C(Nc1cc(Cl)c2ncc(C#N)c(NC(CCC#N)c3ccccc3)c2c1)(c1cn(C2CC2)nn1)c1ccccc1Cl (stereo not drawn) [Example 88, 8-chloro-6-(((2-chlorophenyl) (1-cyclopropyl-1H-1,2,3-triazol-4-yl)methyl-d)amino)-4-((3-cyano-1-phenylpropyl)amino) quinoline-3-carbonitrile]
38 | 2 | – | [2H][C@](Nc1cc(Cl)c2ncc(C#N)c(N[C@H](CCC#N)c3ccccc3)c2c1)(c1cn(C2CC2)nn1)c1ccccc1Cl [Example 89, 8-chloro-6-(((2-chlorophenyl) (1-cyclopropyl-1H-1,2,3-triazol-4-yl)methyl-d)amino)-4-(((R)-3-cyano-1-phenylpropyl)amino) quinoline-3-carbonitrile]
287 | 26 | – | [2H][C@](Nc1cc(Cl)c2ncc(C#N)c(NCC(C)(C)C)c2c1)(c1cn(CC2CCO2)nn1)c1ccccc1Cl (stereo partly drawn) [Example 90, 8-chloro-6-(((2-chlorophenyl) (1-(oxetan-2-ylmethyl)-1H-1,2,3-triazol-4-yl)methyl-d)amino)-4-(neopentylamino) quinoline-3-carbonitrile]
832 | 59 | – | [2H][C@](Nc1cc(Cl)c2ncc(C#N)c(NCC(C)(C)C)c2c1)(c1cn(CC(F)(F)F)nn1)c1ccccc1Cl [Example 93, 8-chloro-6-(((2-chlorophenyl) (1-(2,2,2-trifluoroethyl)-1H-1,2,3-triazol-4-yl)methyl-d)amino)-4-(neopentylamino) quinoline-3-carbonitrile]
